Reference: US7138361B2, “Herbicidal heterocycles” (E. I. du Pont de Nemours and Company, priority 2000, dated 2006)

Tests used:
Type in all cases: in vivo
[1] = system: smallflower flatsedge (Cyperus difformis); assay: Test C flooded paddy test; settings: for Flatsedge plant response rating: Flooded Paddy, scale 0 to 100, 0 no effect, 100 complete control; for Plant response rating, Flatsedge: flooded paddy test, scale 0 to 100 (0 no effect, 100 complete control)
Procedure, shortened: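 Greenhouse-maintained for 12 to 14 days after treatment, the paddy plants (2-leaf stage at application) were scored visually against controls. A score of 0 denotes no effect and a score of 100 denotes complete control.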

[2] = system: morning glory (Ipomoea hederacea); assay: Test B postemergence; settings: 13 to 15 days
Procedure, shortened: (§1)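 Preemergence: seeds planted and treated with test chemicals in non-phytotoxic solvent with surfactant; postemergence on plants 2–18 cm (1- to 4-leaf stage). Kept in greenhouse 13–15 days, then visually rated against controls on a 0 (no effect) to 100 (complete control) scale.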

wild oat (Avena fatua) = assay: Test B postemergence; settings: 13 to 15 days
Procedure, shortened: as §1

[3] = system: crabgrass (Digitaria sanguinalis); assay: Test B postemergence; settings: 13 to 15 days
Procedure, shortened: as §1

[4] = system: Surinam grass (Brachiaria decumbens); assay: Test B postemergence; settings: 13 to 15 days
Procedure, shortened: as §1

[5] = system: blackgrass (Alopecurus myosuroides); assay: Test B postemergence; settings: 13 to 15 days
Procedure, shortened: as §1

[6] = system: barnyardgrass (Echinochloa crus-galli); assay: Test B postemergence; settings: 13 to 15 days
Procedure, shortened: as §1

[7] = system: lambsquarters (Chenopodium album); assay: Test B postemergence; settings: 13 to 15 days
Procedure, shortened: as §1

[8] = system: cocklebur (Xanthium strumarium); assay: Test B postemergence; settings: 13 to 15 days
Procedure, shortened: as §1

[9] = system: pigweed (Amaranthus retroflexus); assay: Test B postemergence; settings: 13 to 15 days
Procedure, shortened: as §1

[10] = system: wheat (Triticum aestivum); assay: Test B postemergence; settings: 13 to 15 days
Procedure, shortened: as §1

corn (Zea mays) [11] = assay: Test B postemergence; settings: 13 to 15 days
Procedure, shortened: as §1

[12] = system: giant foxtail (Setaria faberii); assay: Test B postemergence; settings: 13 to 15 days
Procedure, shortened: as §1

[13] = system: velvetleaf (Abutilon theophrasti); assay: Test B postemergence; settings: 13 to 15 days
Procedure, shortened: as §1

[14] = system: morning glory (Ipomoea hederacea); assay: Test B preemergence
Procedure, shortened: as §1

[15] = system: crabgrass (Digitaria sanguinalis); assay: Test B preemergence
Procedure, shortened: as §1

rice (Oryza saliva) = assay: Test B preemergence
Procedure, shortened: as §1

[16] = system: Surinam grass (Brachiaria decumbens); assay: Test B preemergence
Procedure, shortened: as §1

[17] = system: barnyardgrass (Echinochloa crus-galli); assay: Test B preemergence
Procedure, shortened: as §1

[18] = system: cocklebur (Xanthium strumarium); assay: Test B preemergence
Procedure, shortened: as §1

[19] = system: pigweed (Amaranthus retroflexus); assay: Test B preemergence
Procedure, shortened: as §1

corn (Zea mays) [20] = assay: Test B preemergence
Procedure, shortened: as §1

[21] = system: giant foxtail (Setaria faberii); assay: Test B preemergence
Procedure, shortened: as §1

[22] = system: velvetleaf (Abutilon theophrasti); assay: Test B preemergence
Procedure, shortened: as §1

Sunflower = assay: Test C preemergence; settings: scale 0 to 100, 0 no effect, 100 complete control
[23] = system: lambsquarters (Chenopodium album); assay: Test B preemergence
Procedure, shortened: as §1

[24] = Rate 125 g/ha, scale 0 (no effect) to 100 (complete control)
[25] = Rate 500 g/ha, scale 0 to 100, 0 is no effect, 100 is complete control
[26] = Preemergence, Rate 500 g/ha, scale 0 to 100, 0 no effect, 100 complete control
[27] = preemergence, Rate 125 g/ha, scale 0 to 100, 0 no effect, 100 complete control
[28] = preemergence, Rate 125 g/ha, scale of 0 to 100 where 0 is no effect and 100 is complete control, 13 to 15 days

## CCC(CC)c1ccn(C2SCN(c3cccc(C(F)(F)F)c3)C2=O)n1 (stereo not shown) [Compound 21]
[1]; Rate 250 g/ha
  Flatsedge plant response rating: 90
[1]; Rate 500 g/ha
  Flatsedge plant response rating: 100
[1]; Rate 62 g/ha
  Plant response rating, Flatsedge: 80
[1]; Rate 125 g/ha
  Plant response rating, Flatsedge: 90
[2]; [24]
  Plant response rating, Morningglory: 70
[2]; [25]
  Plant response rating, Morningglory: 80
Wild oat (Avena fatua); [24]
  Plant response rating, Wild Oat: 0
Wild oat (Avena fatua); [25]
  Plant response rating, Wild Oat: 0
[3]; [24]
  Plant response rating, Crabgrass: 30
[3]; [25]
  Plant response rating, Crabgrass: 70
[4]; [24]
  Plant response rating, Surinam grass: 0
[4]; [25]
  Plant response rating, Surinam grass: 0
[5]; [24]
  Plant response rating, Blackgrass: 0
[5]; [25]
  Plant response rating, Blackgrass: 0
[6]; [24]
  Plant response rating, Barnyardgrass: 90
[6]; [25]
  Plant response rating, Barnyardgrass: 100
[7]; [24]
  Plant response rating, Lambsquarters: 100
[7]; [25]
  Plant response rating, Lambsquarters: 100
[8]; [24]
  Plant response rating, Cocklebur: 70
[8]; [25]
  Plant response rating, Cocklebur: 80
[9]; [24]
  Plant response rating, Pigweed: 70
[9]; [25]
  Plant response rating, Pigweed: 90
[10]; [24]
  Plant response rating, Wheat: 0
[10]; [25]
  Plant response rating, Wheat: 0
Corn (Zea mays) [11]; [24]
  Plant response rating, Corn: 0
Corn (Zea mays) [11]; [25]
  Plant response rating, Corn: 0
[12]; [24]
  Plant response rating, Foxtail, Giant: 20
[12]; [25]
  Plant response rating, Foxtail, Giant: 60
[13]; [24]
  Plant response rating, Velvetleaf: 20
[13]; [25]
  Plant response rating, Velvetleaf: 60
[14]; [26]
  Plant response rating, Morningglory: 100
[14]; [27]
  Plant response rating, Morningglory: 90
[15]; [26]
  Plant response rating, Crabgrass: 100
[15]; [27]
  Plant response rating, Crabgrass: 100
Rice (Oryza saliva); [26]
  Plant response rating, Rice: 0
Rice (Oryza saliva); [27]
  Plant response rating, Rice: 0
[16]; [26]
  Plant response rating, Surinam grass: 20
[16]; [27]
  Plant response rating, Surinam grass: 20
[17]; [26]
  Plant response rating, Barnyardgrass: 100
[17]; [27]
  Plant response rating, Barnyardgrass: 60
[18]; [26]
  Plant response rating, Cocklebur: 0
[19]; [26]
  Plant response rating, Pigweed: 90
[19]; [27]
  Plant response rating, Pigweed: 0
Corn (Zea mays) [20]; [26]
  Plant response rating, Corn: 0
Corn (Zea mays) [20]; [27]
  Plant response rating, Corn: 0
[21]; [26]
  Plant response rating, Foxtail, Giant: 100
[21]; [27]
  Plant response rating, Foxtail, Giant: 70
[22]; [26]
  Plant response rating, Velvetleaf: 0
[22]; [27]
  Plant response rating, Velvetleaf: 0
Sunflower; Rate 125 g/ha
  Plant response rating, Sunflower: 70

## CC(C)(C)c1ccn(C2CCN(c3cccc(Cl)c3)C2=O)n1 (stereo not shown) [Compound 43]
[1]; Rate 250 g/ha
  Flatsedge plant response rating: 100
[1]; Rate 500 g/ha
  Flatsedge plant response rating: 100
[1]; Rate 62 g/ha
  Plant response rating, Flatsedge: 90
[1]; Rate 125 g/ha
  Plant response rating, Flatsedge: 100
[2]; [24]
  Plant response rating, Morningglory: 0
[2]; [25]
  Plant response rating, Morningglory: 0
Wild oat (Avena fatua); [24]
  Plant response rating, Wild Oat: 0
Wild oat (Avena fatua); [25]
  Plant response rating, Wild Oat: 0
[3]; [24]
  Plant response rating, Crabgrass: 0
[3]; [25]
  Plant response rating, Crabgrass: 50
[4]; [24]
  Plant response rating, Surinam grass: 0
[4]; [25]
  Plant response rating, Surinam grass: 0
[5]; [24]
  Plant response rating, Blackgrass: 0
[5]; [25]
  Plant response rating, Blackgrass: 0
[6]; [24]
  Plant response rating, Barnyardgrass: 0
[6]; [25]
  Plant response rating, Barnyardgrass: 70
[7]; [24]
  Plant response rating, Lambsquarters: 50
[7]; [25]
  Plant response rating, Lambsquarters: 80
[8]; [24]
  Plant response rating, Cocklebur: 0
[8]; [25]
  Plant response rating, Cocklebur: 0
[9]; [24]
  Plant response rating, Pigweed: 50
[9]; [25]
  Plant response rating, Pigweed: 80
[10]; [24]
  Plant response rating, Wheat: 0
[10]; [25]
  Plant response rating, Wheat: 0
Corn (Zea mays) [11]; [24]
  Plant response rating, Corn: 0
Corn (Zea mays) [11]; [25]
  Plant response rating, Corn: 0
[12]; [24]
  Plant response rating, Foxtail, Giant: 0
[12]; [25]
  Plant response rating, Foxtail, Giant: 0
[13]; [24]
  Plant response rating, Velvetleaf: 0
[13]; [25]
  Plant response rating, Velvetleaf: 0
[14]; [26]
  Plant response rating, Morningglory: 0
[15]; [26]
  Plant response rating, Crabgrass: 90
[15]; [27]
  Plant response rating, Crabgrass: 0
Rice (Oryza saliva); [26]
  Plant response rating, Rice: 70
[16]; [26]
  Plant response rating, Surinam grass: 20
[16]; [27]
  Plant response rating, Surinam grass: 0
[17]; [26]
  Plant response rating, Barnyardgrass: 100
[17]; [27]
  Plant response rating, Barnyardgrass: 60
[23]; [26]
  Plant response rating, Lambsquarters: 100
[23]; [27]
  Plant response rating, Lambsquarters: 100
[18]; [26]
  Plant response rating, Cocklebur: 0
[19]; [26]
  Plant response rating, Pigweed: 100
Corn (Zea mays) [20]; [26]
  Plant response rating, Corn: 0
Corn (Zea mays) [20]; [27]
  Plant response rating, Corn: 0
[21]; [26]
  Plant response rating, Foxtail, Giant: 100
[21]; [27]
  Plant response rating, Foxtail, Giant: 0
[22]; [26]
  Plant response rating, Velvetleaf: 0
Sunflower; Rate 125 g/ha
  Plant response rating, Sunflower: 0

## COC(=O)c1cccc(N2CCC(n3ccc(C(C)(C)C)n3)C2=O)c1 (stereo not shown) [Compound 73]
[1]; Rate 250 g/ha
  Flatsedge plant response rating: 100
[1]; Rate 500 g/ha
  Flatsedge plant response rating: 100
[1]; Rate 62 g/ha
  Plant response rating, Flatsedge: 90
[1]; Rate 125 g/ha
  Plant response rating, Flatsedge: 100
[2]; [24]
  Plant response rating, Morningglory: 20
[2]; [25]
  Plant response rating, Morningglory: 20
Wild oat (Avena fatua); [24]
  Plant response rating, Wild Oat: 0
Wild oat (Avena fatua); [25]
  Plant response rating, Wild Oat: 0
[3]; [24]
  Plant response rating, Crabgrass: 0
[3]; [25]
  Plant response rating, Crabgrass: 50
[4]; [24]
  Plant response rating, Surinam grass: 0
[4]; [25]
  Plant response rating, Surinam grass: 0
[5]; [24]
  Plant response rating, Blackgrass: 0
[5]; [25]
  Plant response rating, Blackgrass: 0
[6]; [24]
  Plant response rating, Barnyardgrass: 30
[6]; [25]
  Plant response rating, Barnyardgrass: 90
[7]; [24]
  Plant response rating, Lambsquarters: 0
[7]; [25]
  Plant response rating, Lambsquarters: 70
[8]; [24]
  Plant response rating, Cocklebur: 20
[8]; [25]
  Plant response rating, Cocklebur: 90
[9]; [24]
  Plant response rating, Pigweed: 20
[9]; [25]
  Plant response rating, Pigweed: 90
[10]; [24]
  Plant response rating, Wheat: 0
[10]; [25]
  Plant response rating, Wheat: 0
Corn (Zea mays) [11]; [24]
  Plant response rating, Corn: 30
Corn (Zea mays) [11]; [25]
  Plant response rating, Corn: 40
[12]; [24]
  Plant response rating, Foxtail, Giant: 20
[12]; [25]
  Plant response rating, Foxtail, Giant: 50
[13]; [24]
  Plant response rating, Velvetleaf: 50
[13]; [25]
  Plant response rating, Velvetleaf: 70
[14]; [26]
  Plant response rating, Morningglory: 100
[14]; [28]
  Plant response rating, Morningglory: 0
[15]; [26]
  Plant response rating, Crabgrass: 100
[15]; [28]
  Plant response rating, Crabgrass: 100
Rice (Oryza saliva); [26]
  Plant response rating, Rice: 40
Rice (Oryza saliva); [28]
  Plant response rating, Rice: 30
[16]; [26]
  Plant response rating, Surinam grass: 90
[16]; [28]
  Plant response rating, Surinam grass: 50
[17]; [26]
  Plant response rating, Barnyardgrass: 100
[17]; [28]
  Plant response rating, Barnyardgrass: 100
[23]; [26]
  Plant response rating, Lambsquarters: 100
[23]; [28]
  Plant response rating, Lambsquarters: 100
[18]; [26]
  Plant response rating, Cocklebur: 90
[18]; [28]
  Plant response rating, Cocklebur: 0
[19]; [26]
  Plant response rating, Pigweed: 100
[19]; [28]
  Plant response rating, Pigweed: 100
Corn (Zea mays) [20]; [26]
  Plant response rating, Corn: 30
Corn (Zea mays) [20]; [28]
  Plant response rating, Corn: 0
[21]; [26]
  Plant response rating, Foxtail, Giant: 100
[21]; [28]
  Plant response rating, Foxtail, Giant: 100
[22]; [26]
  Plant response rating, Velvetleaf: 100
[22]; [28]
  Plant response rating, Velvetleaf: 90
Sunflower; Rate 250 g/ha
  Plant response rating, Sunflower: 70
